11 compounds from patent US11751567B2, “Steroidal piperidone derivative, synthesis method, and use thereof” (NORTHWEST A&F UNIVERSITY, priority 2021, dated 2023) can be followed below.

Type in all cases: in vivo
One assay deals with Bemisia tabaci. The experiment in a line: foliar spray test on cucumber leaf against B. tabaci. The note with it: 168 h, read-out: Corrected mortality (%) B. tabaci. The procedure: (§1) The toxic activities of the steroidal piperidone derivatives listed in Table 4 against B. tabaci were tested by a foliar spray method. Specific process: A specified amount of a compound to be tested was accurately weighed and dissolved in acetone, and solutions with concentrations of 50 μg/mL and 75 μg/mL were each prepared with a 0.1% of Tween 80 aqueous solution and stored for later use. The pesticide solution was sprayed on the back side of a cucumber leaf, the cucumber leaf was naturally dried, and B. tabaci to be tested were placed on the cucumber leaf. Thiamethoxam was used as a positive control, and acetone was used as a negative control. Several deaths were observed after 7 d of treatment, and the corrected mortality was calculated.

The test system of a further assay is wheat aphids. In words: slide-dip mortality test on aphids (wheat aphids). The note with it: 24 h, read-out: Corrected mortality (%) Wheat aphid. The procedure: (§2) Inhibitory activities of the steroidal piperidone derivatives listed in Tables 1 and 2 against Myzus persicae, Aphis citricola, Brevicoryne brassicae, and wheat aphids were determined through slide-dip method. Specific process: A specified amount of a compound to be tested was accurately weighed and dissolved with acetone as a solvent, and solutions with concentrations of 50 μg/mL and 75 μg/mL were each prepared with a 0.1% Tween-80 aqueous solution, allowed to stand at room temperature for 0.5 h until the sample was completely dissolved, and stored for later use. Then, adult aphids were fixed with double-sided tape on slides with a small brush. One end of the slide with the aphids was immersed in the test solutions for 5 seconds. The excess liquid was absorbed with absorbent paper, and the mortality rates were calculated 24 h after treatment. Acetamiprid was adopted as a positive control, and a 0.1% Tween-80 aqueous solution was adopted as a negative control. and the results are shown in Table 1.

The subject of another assay is Tetranychus truncatus. In words: slide dipping mortality test on mites. The settings on record: read-out: Corrected mortality (%) Tetranychus truncatus. The protocol: as §2
The inhibitory activities of the steroidal piperidone derivatives listed in Table 3 on Tetranychus truncatus were tested through slide dipping.

The test system of a further assay is rice planthoppers. In words: foliar spray test against rice planthoppers. The note with it: 72 h, read-out: Corrected mortality (%) rice planthoppers. The protocol:
as §1
The toxic activities of the steroidal piperidone derivatives listed in Table 5 against rice planthoppers were tested by a foliar spray method. Imidacloprid was used as a positive control, and acetone was used as a negative control. Several deaths were observed after 3 d of treatment, and the corrected mortality was calculated.

The next assay deals with Myzus persicae. In words: slide-dip mortality test on aphids (Myzus persicae). The note with it: 24 h, read-out: Corrected mortality (%) Myzus persicae. The protocol:
as §2

The test system of a further assay is Brevicoryne brassicae. In words: slide-dip mortality test on aphids (Brevicoryne brassicae). The note with it: 24 h, read-out: Corrected mortality (%) Brevicoryne brassicae. The procedure:
as §2

The subject of the next assay is Aphis citricola. In words: slide-dip mortality and LC50 test on aphids (Aphis citricola). The settings on record: for mortality at 50 µg/mL / mortality at 75 µg/mL: 24 h, read-out: Corrected mortality (%) Aphis citricola; for LC50: read-out: LC50 of inhibitory activity against Aphis citricola. The protocol: as §2
Setting [1] is: 50 μg/mL, slide dipping, process as for aphids.
Setting [2] is: 75 μg/mL, slide dipping, process as for aphids.

Converted amounts (≈) assume the structure as drawn. Read-outs that look alike come from different tables or passages of the source.

As usually defined, the mortality is the share of the test organisms that died. The term LC50 denotes the concentration that kills 50% of the test population. As for `C[C@]12CC[C@H](O)CC1CC[C@@H]1[C@@H]2CC[C@@]2(C)[C@H]1CCC(=O)N2C(=O)c1ccc(F)cc1` (stereo partly drawn) [Compound (1)-3], the mortality at 50 µg/mL turned out to be 67.7% in the assay on Bemisia tabaci; 70.5% in the assay with wheat aphids; 54.3% with Tetranychus truncatus (setting [1]); 63.3% in the assay with rice planthoppers; 69.3% with Myzus persicae; 64% in the assay with Brevicoryne brassicae. Moreover, the mortality at 50 µg/mL with Aphis citricola was determined as 66.3%. Moreover, the mortality at 75 µg/mL was determined as 74.7% in the assay with Bemisia tabaci; 90% with wheat aphids; 70.3% in the assay on Tetranychus truncatus (setting [2]); 71.2% in the assay with rice planthoppers; 89.9% with Myzus persicae; 82.8% with Brevicoryne brassicae. Further, the mortality at 75 µg/mL in the assay with Aphis citricola was 85.2%. Besides, in the assay on Aphis citricola, the median lethal concentration (LC50) amounted to 24.6 µg/mL (≈ 57.5 µM).
For the compound `C[C@]12CC[C@H](O)CC1CC[C@@H]1[C@@H]2CC[C@@]2(C)[C@H]1CCC(=O)N2C(=O)c1ccc(Cl)cc1` (stereo partly drawn) [Compound (1)-4], the mortality at 50 µg/mL in the assay on Bemisia tabaci was found to be 72.5%; in the assay with wheat aphids, 91%; in the assay with Tetranychus truncatus (setting [1]), 64.2%; in the assay with rice planthoppers, 72%; in the assay on Myzus persicae it was 84.1%; in the assay on Brevicoryne brassicae, 86.5%. For the same compound, the mortality at 50 µg/mL in the assay on Aphis citricola was determined as 89.9%. The mortality at 75 µg/mL with Bemisia tabaci was found to be 87.4%; with wheat aphids, 100%; in the assay on Tetranychus truncatus (setting [2]) it was 88.6%; in the assay with rice planthoppers it was 80.4%; in the assay with Myzus persicae, 100%; in the assay with Brevicoryne brassicae, 100%. Also, the mortality at 75 µg/mL in the assay on Aphis citricola was found to be 100%. Moreover, the LC50 in the assay with Aphis citricola is 11.9 µg/mL (≈ 26.8 µM).
As for `C[C@]12CC[C@H](O)CC1CC[C@@H]1[C@@H]2CC[C@@]2(C)[C@H]1CCC(=O)N2C(=O)c1cccc(Br)c1` (stereo partly drawn) [Compound (1)-6], the mortality at 50 µg/mL with Bemisia tabaci came to 56.1%; in the assay with wheat aphids, 59.9%; in the assay with Tetranychus truncatus (setting [1]), 24.9%; with rice planthoppers, 45.2%; with Myzus persicae it was 60.2%; in the assay on Brevicoryne brassicae, 51.7%. Moreover, in the assay with Aphis citricola, the mortality at 50 µg/mL is 44.9%. The mortality at 75 µg/mL in the assay with Bemisia tabaci amounted to 67.5%; with wheat aphids, 80%; in the assay on Tetranychus truncatus (setting [2]), 55.3%; in the assay with rice planthoppers, 59.2%; with Myzus persicae it was 77.5%; with Brevicoryne brassicae, 73.6%. For the same compound, the mortality at 75 µg/mL in the assay with Aphis citricola stood at 78.4%.
On to `Cc1ccccc1C(=O)N1C(=O)CC[C@H]2[C@@H]3CC=C4C[C@@H](O)CC[C@]4(C)[C@H]3CC[C@@]21C` [Compound (2)-7], for which the mortality at 50 µg/mL with Bemisia tabaci came to 76.3%; with wheat aphids, 96%; in the assay with Tetranychus truncatus (setting [1]) it was 66.8%; in the assay with rice planthoppers, 64.2%; in the assay with Myzus persicae, 93.2%; in the assay on Brevicoryne brassicae it was 94.4%. In addition, the mortality at 50 µg/mL in the assay on Aphis citricola was found to be 92.1%. Further, the mortality at 75 µg/mL amounted to 88.5% in the assay with Bemisia tabaci; 100% with wheat aphids; 88.5% in the assay on Tetranychus truncatus (setting [2]); 79.2% with rice planthoppers; 100% in the assay with Myzus persicae; 100% with Brevicoryne brassicae. Also, in the assay on Aphis citricola, the mortality at 75 µg/mL was found to be 100%. The LC50 with Aphis citricola came out at 10.3 µg/mL (≈ 24.4 µM).
For the compound `Cc1cccc(C(=O)N2C(=O)CC[C@H]3[C@@H]4CC=C5C[C@@H](O)CC[C@]5(C)[C@H]4CC[C@@]32C)c1` [Compound (2)-8], the mortality at 50 µg/mL in the assay with Bemisia tabaci came out at 31.8%; in the assay on wheat aphids it was 54.9%; in the assay with Tetranychus truncatus (setting [1]) it was 30.3%; in the assay on rice planthoppers, 41.9%; in the assay on Myzus persicae it was 43.2%; with Brevicoryne brassicae, 51.7%. The mortality at 50 µg/mL with Aphis citricola is 48.3%. Besides, the mortality at 75 µg/mL is 56.3% in the assay on Bemisia tabaci; 73.3% with wheat aphids; 54.4% in the assay on Tetranychus truncatus (setting [2]); 52.4% with rice planthoppers; 69.7% in the assay on Myzus persicae; 70.1% in the assay on Brevicoryne brassicae. In addition, the mortality at 75 µg/mL in the assay on Aphis citricola was 70.5%.
For `Cc1ccc(C(=O)N2C(=O)CC[C@H]3[C@@H]4CC=C5C[C@@H](O)CC[C@]5(C)[C@H]4CC[C@@]32C)cc1` [Compound (2)-9], the mortality at 50 µg/mL in the assay with Bemisia tabaci was 63.4%; in the assay with wheat aphids it was 85.5%; in the assay on Tetranychus truncatus (setting [1]), 55.2%; with rice planthoppers it was 59.6%; with Myzus persicae, 80.7%; in the assay with Brevicoryne brassicae, 78.7%. Also, in the assay on Aphis citricola, the mortality at 50 µg/mL was determined as 88.8%. For the same compound, the mortality at 75 µg/mL in the assay with Bemisia tabaci was determined as 75.9%; in the assay with wheat aphids it was 100%; with Tetranychus truncatus (setting [2]), 77.5%; with rice planthoppers, 66.2%; with Myzus persicae, 100%; with Brevicoryne brassicae it was 100%. Besides, the mortality at 75 µg/mL with Aphis citricola amounted to 100%. Besides, in the assay on Aphis citricola, the LC50 turned out to be 14.2 µg/mL (≈ 33.7 µM).
For `COc1ccc(C(=O)N2C(=O)CC[C@H]3[C@@H]4CC=C5C[C@@H](O)CC[C@]5(C)[C@H]4CC[C@@]32C)cc1` [Compound (2)-10], the mortality at 50 µg/mL in the assay on Bemisia tabaci turned out to be 48.5%; with rice planthoppers it was 33.2%. The mortality at 75 µg/mL came out at 69.1% with Bemisia tabaci and 36% in the assay with rice planthoppers.
On to `C[C@]12CC[C@H](O)CC1=CC[C@@H]1[C@@H]2CC[C@@]2(C)[C@H]1CCC(=O)N2C(=O)c1cccc(C(F)(F)F)c1` [Compound (2)-11], for which the mortality at 50 µg/mL in the assay on Bemisia tabaci amounted to 45.4%; with wheat aphids, 40%; with rice planthoppers, 35.3%; in the assay on Myzus persicae, 40.9%; with Brevicoryne brassicae it was 42.7%; in the assay on Aphis citricola, 44.9%. Further, the mortality at 75 µg/mL in the assay on Bemisia tabaci stood at 58.3%; in the assay on wheat aphids, 59.7%; with rice planthoppers, 57.8%; in the assay on Myzus persicae, 66.3%; in the assay on Brevicoryne brassicae, 65.5%; with Aphis citricola, 72.7%.
Regarding `C[C@]12CC[C@H](O)CC1=CC[C@@H]1[C@@H]2CC[C@@]2(C)[C@H]1CCC(=O)N2C(=O)c1ccc(C(F)(F)F)cc1` [Compound (2)-12], the mortality at 50 µg/mL with Bemisia tabaci turned out to be 47.5%; with wheat aphids, 65%; in the assay on Tetranychus truncatus (setting [1]), 33.8%; with rice planthoppers, 54%; in the assay on Myzus persicae, 59.1%; with Brevicoryne brassicae it was 61.8%. In addition, the mortality at 50 µg/mL with Aphis citricola amounted to 60.7%. Besides, the mortality at 75 µg/mL in the assay with Bemisia tabaci turned out to be 58.6%; in the assay on wheat aphids, 84.3%; in the assay on Tetranychus truncatus (setting [2]) it was 55.5%; with rice planthoppers, 63%; with Myzus persicae, 79.8%; in the assay with Brevicoryne brassicae, 82.8%. The mortality at 75 µg/mL in the assay on Aphis citricola is 83%. In addition, the LC50 with Aphis citricola was 21.9 µg/mL (≈ 46.1 µM).
`CC(C)(C)c1ccc(CSc2cnn(C(C)(C)C)c(=O)c2Cl)cc1` [Pyridaben, reference compound]: in the assay on Tetranychus truncatus, the mortality at 50 µg/mL is 65.3% and the mortality at 75 µg/mL is 89.3%.
On to `CN1COCN(Cc2cnc(Cl)s2)/C1=N\[N+](=O)[O-]` [Thiamethoxam, reference compound], for which, in the assay with Bemisia tabaci, the mortality at 50 µg/mL is 59.5% and the mortality at 75 µg/mL turned out to be 76.2%.
